Measurements published in patent US9738623B2, “Curcumin analogs” (The General Hospital Corporation, priority 2012, dated 2017).

Key:
FAM-Aβ42 = molecular target: T1, FAM-Aβ42 (Homo sapiens, UniProt P05067); assay: SDS-PAGE of copper-induced crosslinking of FAM-Aβ42; assay type: biochemical; conditions: for intensity of monomeric Aβ bands relative to non-treated group: 4 hours incubation with copper sulfate and vitamin C
T1 construct: a Aβ42 labeled with fluorescent dye (FAM) (FAM-Aβ42); purchased American Peptide Company
Experimental: (§1) Samples were separated on 4-20% gradient Tris-glycine mini gels (Invitrogen). For FAM-Aβ42 gels, the images were acquired on IVIS®Spectrum (Caliper, Perkin Elmer) with excitation=465 nm, and emission=520 nm. For native Aβ42 gels, the gel was transferred to a nitrocellulose membrane in a cooled transferring buffer and the membrane was blocked at room temperature for 2 hours. After blocking, the membrane was incubated in a solution of 6E10 anti-Aβ primary antibody (1:2000 dilution, Covance, Dedham, Mass.) at 4° C. overnight. After washing with TBS buffer, the membrane was incubated with the secondary antibody for 2 hours at room temperature. Western Breeze Chemiluminescent kit (Invitrogen) was used to visualize the bands. The images were acquired using IVIS®Spectrum (Caliper, Perkin Elmer) using bioluminescence imaging setting. SeeBlue®plus2 (Invitrogen)(4-250KD) was used as a molecular weight marker.
(§2) All the samples used for SDS-PAGE gel and Western blot were prepared using the same procedure as described below. A 5 μL HFIP (hexafluoroisopropanol) solution (25 μM) of native Aβ42 or FAM-Aβ42 was added to a 1.5 mL eppendorf tube. After evaporating the organic solvent under vacuum, a 5 μL at DMSO or DMSO solution of CRANAD-17 (100 μM) was added to the tube, followed by the addition of 15 μL of Vitamin C solution in PBS (33.3 μM) and 5 μL of copper sulfate solution in PBS (12.5 μM). The resulting mixture was incubated at 37° C. for 4 hours, and was then subjected to gel electrophoresis. For dose dependency study, 5 μL of DMSO solution of different CRANAD-17 concentrations (25, 125, 250 μM) was added to obtain CRANAD-17/Aβ42 ratio equals 1:1, 5:1, and 10:1.

Aβ42 [1] = molecular target: T2, Aβ42 (Homo sapiens, UniProt P05067); assay: Western blot of copper-induced crosslinking of native Aβ42; assay type: biochemical; conditions: for attenuation of copper-induced crosslinking of native Aβ42: 4 hours incubation; for high molecular weight species on gel: copper treated
T2 construct: Synthetic amyloid-β peptide (1-40/42) was purchased from rPeptide; purchased rPeptide (Bogart, Ga.)
Experimental: as §1, §2
To this end, human Aβ42 was incubated with curcumin, CRANAD-3 and CRANAD-17 under the same conditions as above.

human Aβ40 = molecular target: T3, human Aβ40 (Homo sapiens, UniProt P05067); assay: Fluorescence spectra recording with Aβ40; assay type: binding; conditions: 500 nM compound, 250 nM Aβ
T3 construct: Synthetic amyloid-β peptide (1-40/42) was purchased from rPeptide; purchased rPeptide (Bogart, Ga.)
Experimental: (§3) The procedure described below was used for all experiments. To test the interactions of CRANAD-17 with Aβ species including Aβ42 monomers, Aβ40 monomers and [H13R]Aβ40 monomers, we utilize the following protocol. Step 1: 1.0 mL of PBS buffer was added to a quartz curvet as a blank control and its fluorescence was recorded with the same parameters as for CRANAD-17; Step 2: fluorescence of a CRANAD-17 solution (1 mL, 500 nM) was recorded with excitation at 480 nm and emission from 500 nm to 900 nm; Step 3: to the above CRANAD-17 solution, 10 μL of Aβ species (25 μM) was added to make the final Aβ species concentration of 250 nM, and the fluorescence spectrum from this solution was recorded. The final spectra from steps 2 and 3 were corrected using the blank control from step 1.

[H13R]Aβ40 = molecular target: T4, [H13R]Aβ40 (Homo sapiens, UniProt P05067, H684R); assay: Fluorescence spectra recording with [H13R]Aβ40; assay type: binding
T4 construct: [H13R]Aβ40 monomers; purchased American Peptide Company
Experimental: as §3
Conceivably, it is possible that the pyridyl ring on the other end of CRANAD-3 has a specific interaction with H13 and H14 of Aβ, which have aromatic imidazolium rings and are at the equal distance from K16 as VFF. To this end, the fluorescence intensities of CRANAD-3 with Aβ and H13R substituted Aβ ([H13R]Aβ), in which H13 is replaced by arginine (R) was compared.

Aβ42 [2] = molecular target: T2, Aβ42; assay: TEM measurement of Aβ42 aggregation; assay type: biochemical; conditions: 1.0 μM compound, 250 nM Aβ42, 37° C., 24 hours
Experimental: A 250 nM of Aβ42 in PBS solution was placed was at 37° C. for 24 hours. Next, 5 μL of this solution was dropped onto a Formvar coated TEM grid, followed by the addition of 2 μL of PTA contrast solution. After one minute, the liquid on the grid was carefully dried with a corner of a filter paper, and the resulting grid was further dried in the air for 2-5 minute. The TEM images were taken with JEOL 1011 electron microscope. Similar procedure was used for the incubated solution of CRANAD-l7 (1.0 μM) and Aβ42 (250 nM).

Aβ42 [3] = molecular target: T2, Aβ42; assay: Thioflavin T test of Aβ42 aggregation; assay type: biochemical; conditions: 10 μM compound, 37° C., 24 hours
Experimental: A 2.5 μM of Aβ42 solution in PBS was placed at 37° C. for 24 hours., and 10 μL of this solution was added to 1.0 ml PBS solution. The resulting solution was and then subjected to fluorescence spectrum recording with excitation=440 nm, and emission=470-800 nm (baseline recording). To this solution, 10 μL of thioflavin T (2.5 μM in PBS) was added and the spectrum was recorded. The quantification was conducted at λem=500 nm for Thioflavin T reading by subtracting the baseline reading. For CRANAD-17 (10 μM) incubation, the quantification was conducted by subtracting the readings at baseline and CRANAD-17 at λem=500 nm.

APP/PS1 mice = assay: In vivo six-month treatment of APP/PS1 mice (NIR imaging, ELISA, plaque counting); conditions: 4 mg/kg i.p. twice a week, 6-month treatment
Experimental: Transgenic APP-PS1 mice and age-matched wild type mice were purchased from Jackson Laboratory. In vivo NIR imaging was recorded using the IVIS° Spectrum.
Ten APP/PS 1 mice (4-month) were divided into 2 groups (n=5/group), and one group was i.p. injected with 100 microliter of CRANAD-17 (4 mg/kg, formulated withl0% cremophor, 10% DMSO and 80% PBS) twice a week. After 6-month treatment, the two groups were subjected to NIR imaging with CRANAD-3 (ex=605, em=680 nm), and then were sacrificed. The brain of each mouse was taken, and dissected in two halves. One half brain was subjected to extraction and then to ELISA analysis. The other half brain was dissected into 25 micron slices, and then the slices were stained with Thioflavin S. Eight slices from hippocampus area of each mouse were subjected to amyloid beta plaque counting by ImageJ.

| Molecule | attenuation of copper-induced crosslinking (FAM-Aβ42; FAM-Aβ42/compound 1:1, 1:5, 1:10) | intensity of monomeric Aβ bands relative to non-treated group (FAM-Aβ42) [fold] | attenuation of copper-induced crosslinking of native Aβ42 (Aβ42 [1]; Western blot) | high molecular weight species on gel (Aβ42 [1]) | fluorescence property changes upon mixing with Aβ (human Aβ40) | blue-shift with [H13R]Aβ ([H13R]Aβ40) | fluorescence intensity with [H13R]Aβ compared to native Aβ ([H13R]Aβ40) | attenuation effect compared to curcumin and CRANAD-3 (Aβ42 [1]; Western blot) | visible fibrils by TEM compared to control (Aβ42 treated with copper only) (Aβ42 [2]) | Thioflavin T fluorescence signal (Aβ42 [3]) | ELISA analysis of brain extraction, reduction (APP/PS1 mice) [%] | lower NIR signals than non-treated group (imaging with CRANAD-3) (APP/PS1 mice) [%] | plaque counting, reduction (APP/PS1 mice; hippocampus slices, Thioflavin S) [%] |
| --- | --- | --- | --- | --- | --- | --- | --- | --- | --- | --- | --- | --- | --- |
| c1ccc(-n2ccnc2)cc1 [4-(1H-imidazol-1-yl)benzene] | relatively small compared to CRANAD-17 |  |  |  |  |  |  |  |  |  |  |  |  |
| COc1cc(/C=C/C(=O)CC(=O)/C=C/c2ccc(O)c(OC)c2)ccc1O [curcumin] |  | 1.07 | could attenuate crosslinking | no significant amount of high molecular weight species |  |  |  |  |  |  |  |  |  |
| CRANAD-17 |  | 1.92 | could attenuate crosslinking | a certain amount of high molecular weight oligomeric species | intensity increase and blue-shift | no significant blue-shift | significantly lower fluorescence intensity | significantly higher attenuation effect | less visible fibrils | lower fluorescence signal | 36 | 25 | 78 |
